Measured values published in patent US20120214875A1, “PHENOX[…]” (priority 2011, published 2012).
Values joined by “and” are separate entries in the source; they are usually repeats but may differ in a detail not shown here. Equal entries are not always repeated.

Assays:
[1] = Processed sample integrity; type: physicochemical; conditions: for Amount Found: single replicates; for % Difference: ~112 hours vs 0.0 hours, 4° C. ± 4° C.
Procedure: (§1) Phenoxybenzamine and the internal standard phenoxybenzamine-d5 were extracted from 0.2 mL of human plasma, using EDTA (potassium K2 salt) as the anticoagulant and containing 1.3% of H3PO4 as stabilizer, by solid phase extraction into 0.8 mL of 0.1% TFA in 80% methanol, followed by dilution with 0.4 mL of 0.1% TFA. An aliquot of this extract was injected into a high performance liquid chromatography system and detected using an API 3000 tandem mass spectrometer with HSID interface and quantitated using peak area ratio method. Method sensitivity and selectivity were achieved by detecting distinct precursor to product ion mass transitions for phenoxybenzamine (304.1→120.0) and the internal standard phenoxybenzamine-d5 (309.1→120.0) at defined retention times under reverse chromatographic conditions.
(§2) Blood plasma was separated from whole blood. The plasma samples should be protected from light and may be stored at −70° C. for use. The plasma samples were thawed in cold tap water and analyzed along with a set of standard samples. All samples were vortexed for about 20 seconds, centrifuged at 3000 rpm for 5 minutes at 4° C.±4° C., and placed in an ice-water bath. 200 uL of plasma was added to polypropylene tubes and kept in ice-water bath. 100 uL of internal standard working solution (40 ng/mL of phenoxybenzamine-d5) was added into all the tubes except those labeled with “BLANK.” 100 uL of 0.1 N HCl in 20% methanol was added to those labeled with BLANK and the tubes were vortexed for about 20 seconds. 400 uL of 1.7% phosphoric acid was added into all tubes. The tubes were vortexed for about 40 seconds and left in an ice-water bath. The Oasis™ HLB 1 cc (30 mg) cartridges (Waters) were washed first with 700 uL methanol and then with 700 uL water. The samples prepared above were then transferred into the cartridges which were then centrifuged at 1000 rpm for 2 minutes at 4° C.±4° C. Cartridges were then first washed with 700 uL water and then washed with 700 uL of 0.1% TFA in 40% methanol. Cartridges were then eluted twice with 400 μL of 0.1% TFA in 80% methanol, and all of the eluates were collected and diluted with 400 μL of 0.1% TFA. The extracted samples were then ready for analysis.
The mean concentration at each time-point was compared with the mean concentration of the zero hour samples.

[2] = Stability of phenoxybenzamine in various solvents; type: physicochemical
Procedure: Various solvents were examined for their abilities to stabilize phenoxybenzamine. The solvents examined were alcohol, acetonitrile (ACN), methanol (MeOH), acidified solvents (e.g., acidified MeOH and acidified ACN). Phenoxybenzamine in these solvents was not stable for 24 hr at 4° C. The stability of phenoxybenzamine was examined in acidified ACN with 0.5%, 1% and 2% formic acid (“FA”). Phenoxybenzamine was stable for ˜3 hr at RT and 4° C. The measured amount of phenoxybenzamine for neat standard in 0.5% FA in ACN was higher than those using 1% FA in ACN, and 2% FA in ACN.
The stability of phenoxybenzamine was examined in acidified MeOH (80% MeOH containing 0.1% TFA). Phenoxybenzamine was stable for at least 48 hours at 4° C., −25° C. and −70° C.
(§3) The stability of phenoxybenzamine in acidified plasma samples containing 1% FA, 1% H3PO4, 2% H3PO4 or 0.1N HCl was tested.

[3] = Stability of phenoxybenzamine in neat solution; type: physicochemical
Procedure: The stability of phenoxybenzamine in neat solutions was examined. The measured amount of phenoxybenzamine in neat solution dropped ˜90% in 24 hours at ambient temperature but ˜20% at 4° C.

[4] = Autosampler re-injection reproducibility of extracted QC samples; type: physicochemical; conditions: for Amount Found: single replicates; for % Difference: 7° C. ± 4° C.
Procedure: as §1, §2
The mean concentration of the aged re-injected samples was compared with the mean concentration of the initial zero hour samples prepared at the same concentration as the QC samples.

[5] = Stability of phenoxybenzamine in whole blood; type: in vitro ADME, human; conditions: for WB Sample Amount Found, Mean: mean of six; for WB Sample Amount Found: single replicates
Procedure: Stability of phenoxybenzamine in human whole blood was determined by spiking phenoxybenzamine into fresh human whole blood. This was followed by the preparation of the whole blood samples into two sets: one set was immediately processed into plasma and the other set was stored at 4° C.±4° C. for up to two hours and then processed into plasma. Samples were extracted in replicates of six with control blank and analyzed.

[6] = Stability of phenoxybenzamine in acidified plasma; type: in vitro ADME
Procedure: as §3

[7] = QC HIGH 19.232 ng/mL added, 0.0 hours
[8] = QC HIGH 19.232 ng/mL added, ~112 hours at 4° C. ± 4° C.
[9] = QC LOW 0.601 ng/mL added, 0.0 hours
[10] = QC LOW 0.601 ng/mL added, ~112 hours at 4° C. ± 4° C.
[11] = QC HIGH 19.232 ng/mL added, ~75 hours at 7° C. ± 4° C.
[12] = QC HIGH 19.232 ng/mL added, ~110 hours at 7° C. ± 4° C.
[13] = QC LOW 0.601 ng/mL added, ~110 hours at 7° C. ± 4° C.
[14] = human whole blood, ~2 hours at 4° C.±4° C.

CC(COc1ccccc1)N(CCCl)Cc1ccccc1 (racemic) [phenoxybenzamine, (RS)—N-benzyl-N-(2-chloroethyl)-1-phenoxy-propan-2-amine]
time for which integrity of processed samples is not affected ([1]; LOW and HIGH concentrations, 4° C.±4° C.): up to 112 hours
Amount Found, Mean [1, 7]: 18.178 ng/mL
Amount Found [1, 7]: 18.305 ng/mL and 18.069 ng/mL and 18.161 ng/mL
Amount Found, Mean [1, 8]: 18.214 ng/mL
Amount Found [1, 8]: 18.209 ng/mL and 18.214 ng/mL and 18.220 ng/mL
% Difference ([1]; QC HIGH): 0.2%
Amount Found, Mean [1, 9]: 0.601 ng/mL
Amount Found [1, 9]: 0.590 ng/mL and 0.603 ng/mL and 0.610 ng/mL
Amount Found, Mean [1, 10]: 0.583 ng/mL
Amount Found [1, 10]: 0.574 ng/mL and 0.590 ng/mL and 0.586 ng/mL
% Difference ([1]; QC LOW): −2.9%
measured amount for neat standard in 0.5% FA in ACN compared with 1% FA and 2% FA in ACN ([2]; 0.5% FA in ACN vs 1% and 2% FA in ACN): higher
drop, autosampler stability ([2]; 0.5% FA in ACN, ~24 hr): ~70%
autosampler re-injection stability, time stable ([2]; 80% MeOH containing 0.1% TFA): at least 24 hours
time stable in acidified MeOH ([2]; 80% MeOH containing 0.1% TFA, 4° C., −25° C. and −70° C.): at least 48 hours
time stable in acidified ACN ([2]; ACN with 0.5%, 1% and 2% formic acid, RT and 4° C.): ~3 h
stability in solvents ([2]; alcohol, acetonitrile, methanol, acidified MeOH and acidified ACN, 24 hr at 4° C.): not stable
drop of measured amount in neat solution ([3]; 24 hours at 4° C.): ~20%
drop of measured amount in neat solution ([3]; 24 hours at ambient temperature): ~90%
Amount Found, Mean [4, 7]: 18.178 ng/mL
Amount Found [4, 7]: 18.305 ng/mL and 18.069 ng/mL and 18.161 ng/mL
Amount Found, Mean [4, 11]: 18.411 ng/mL
Amount Found [4, 11]: 18.066 ng/mL and 18.686 ng/mL and 18.482 ng/mL
Amount Found, Mean [4, 12]: 18.423 ng/mL
Amount Found [4, 12]: 18.179 ng/mL and 18.435 ng/mL and 18.656 ng/mL
% Difference ([4]; QC HIGH, ~75 hours vs 0.0 hours): 1.3%
% Difference ([4]; QC HIGH, ~110 hours vs 0.0 hours): 1.3%
Amount Found, Mean [4, 9]: 0.601 ng/mL
Amount Found [4, 9]: 0.590 ng/mL and 0.603 ng/mL and 0.610 ng/mL
Amount Found, Mean ([4]; QC LOW 0.601 ng/mL added, ~75 hours at 7° C. ± 4° C.): 0.615 ng/mL
Amount Found ([4]; QC LOW 0.601 ng/mL added, ~75 hours in autosampler at 7° C. ± 4° C.): 0.610 ng/mL and 0.646 ng/mL and 0.590 ng/mL
Amount Found, Mean [4, 13]: 0.603 ng/mL
Amount Found [4, 13]: 0.602 ng/mL and 0.612 ng/mL and 0.595 ng/mL
% Difference ([4]; QC LOW, ~75 hours vs 0.0 hours): 2.4%
% Difference ([4]; QC LOW, ~110 hours vs 0.0 hours): 0.3%
time for which extracted samples can be re-injected ([4]; extracted samples stored in autosampler at 7° C.±4° C.): up to 110 hours
WB Sample Amount Found, Mean ([5]; human whole blood, time 0.0 hours): 3.357 ng/mL
WB Sample Amount Found ([5]; human whole blood, time 0.0 hours, processed immediately into plasma): 3.379 ng/mL and 3.325 ng/mL and 3.381 ng/mL and 3.387 ng/mL and 3.305 ng/mL and 3.365 ng/mL
WB Sample Amount Found, Mean [5, 14]: 3.297 ng/mL
WB Sample Amount Found [5, 14]: 3.315 ng/mL and 3.330 ng/mL and 3.365 ng/mL and 3.328 ng/mL and 3.283 ng/mL and 3.160 ng/mL
% Difference ([5]; human whole blood, ~2 hours vs 0.0 hours, 4° C.±4° C.): −1.8%
time stable in whole blood ([5]; stored at 4° C.±4° C.): up to 2 hours
stability in acidified plasma ([6]; plasma containing 0.1N HCl): stable
stability in acidified plasma ([6]; plasma containing 1% FA): stable except for 1% FA
stability in acidified plasma ([6]; plasma containing 1% H3PO4): stable
stability in acidified plasma ([6]; plasma containing 2% H3PO4): stable
